For the experiment, the target named is T1, Receptor-interacting serine/threonine-protein kinase 1 (Homo sapiens, UniProt Q13546).
T1 sequence (Q13546 whole entry): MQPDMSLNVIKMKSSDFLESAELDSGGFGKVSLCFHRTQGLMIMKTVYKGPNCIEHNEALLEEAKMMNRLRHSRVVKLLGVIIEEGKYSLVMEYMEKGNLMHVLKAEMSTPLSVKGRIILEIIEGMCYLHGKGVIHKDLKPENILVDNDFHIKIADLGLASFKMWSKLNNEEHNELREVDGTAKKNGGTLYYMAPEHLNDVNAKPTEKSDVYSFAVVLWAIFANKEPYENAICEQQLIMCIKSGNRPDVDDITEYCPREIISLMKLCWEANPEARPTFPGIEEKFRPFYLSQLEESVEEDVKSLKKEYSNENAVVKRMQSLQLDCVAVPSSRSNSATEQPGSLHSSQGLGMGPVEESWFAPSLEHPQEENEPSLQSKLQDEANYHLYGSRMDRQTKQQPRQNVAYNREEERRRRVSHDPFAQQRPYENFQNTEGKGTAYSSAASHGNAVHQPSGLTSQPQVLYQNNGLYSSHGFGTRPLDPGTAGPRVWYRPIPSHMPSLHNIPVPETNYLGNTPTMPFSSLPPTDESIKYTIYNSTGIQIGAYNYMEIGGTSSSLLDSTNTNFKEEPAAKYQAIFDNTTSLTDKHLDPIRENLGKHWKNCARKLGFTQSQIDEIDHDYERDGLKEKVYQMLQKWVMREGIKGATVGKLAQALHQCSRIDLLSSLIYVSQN
As to the kind of experiment: Biochemical Assay: The ability of the receptor interacting protein kinase (RIPK1) to catalyze the hydrolysis of adenosine-5′-triphosphate (ATP) is monitored using the Transcreener ADP (adenosine-5′-diphosphate) assay (BellBrook Labs).

Structures are written as SMILES.

The values that follow come from ChEMBL document CHEMBL5728428, “Bicyclic lactams and methods of use thereof” (2021).

Usually Ki stands for a measure of affinity in units of concentration, obtained from inhibition or displacement. High values mean a looser hold on the target, low ones a stronger hold on the target. In turn, `CN1C(=O)[C@@H](NC(=O)c2n[nH]c3c2CC(C)(C)OC3)COc2ccccc21` displayed an inhibitory constant (Ki) of 469 nM.
